In test [1] the test system is 3R tau151-391 aggregates in cortical sections from SHR24 rats. Nature of the test: Binding to SHR24 transgenic rat brain sections. Particulars: SHR24 (3R) vs SHR72 (4R) brain tissue. An excerpt:
(§1) Since future PET studies for development of these compounds would require kinetic modeling for their assessment in vivo, we tested their performance in tau transgenic rats. Rat brains and blood volumes are about 6- and 10-fold larger, respectively, than those of mice and thus enable higher resolution imaging and ample volume for repeated blood sampling. We used two transgenic rat lines expressing human-truncated tau comprising the proline-rich region and either three microtubule binding domains (3R tau151-391, SH24)[28] or four microtubule binding domains (4R tau151-391, SHR72).[29] […] However, compared to the SHR24 rat brain sections, there were less inclusions detected, which seems to indicate the compounds have preferential binding toward the three repeat forms of tau in these rat models.
(§2) Fresh frozen rat brain coronal sections (10 μm) were stored on slides at −80 °C until use. Sections were fixed in ice cold acetone for 10 min and air-dried and then rehydrated twice for 5 min with buffer (10 mM PBS with 0.1% Triton X-100) before application of 5% bovine serum albumin for 1 h and two more 5 min buffer washes. Primary monoclonal antibody AT8 (Thermo MN1020, 1:1000) was added overnight at 4 °C, followed by 1 h incubation with a mixture of secondary AlexaFluor555 goat anti-mouse antibody (1:1000) and 50 μM PBB3 or LM229 in 50:50 ethanol/buffer. Following two 5 min washes in buffer, the slides were air-dried and cover-slipped using Fluorsave before analysis. The green autofluorescence of PBB3 and LM229 was visualized using a 488 nm filter and fluorescence of AT8 using a 568 nm filter on a Leica DM6000 microscope.

Test [2] concerns the target T1, 3R tau151-391 aggregates in cortical sections from SHR24 rats (Homo sapiens, UniProt P10636).
T1 construct: tissue AXON Neuroscience; host or cells: brain (cortex) sections of SHR24 transgenic rats
Nature of the test: Binding to SHR24 transgenic rat brain sections. To be noted: 50 μM, colocalization with AT8.
Excerpt: as §1, §2

Test [3] has as its target T2, tau inclusions in brain sections from transgenic P301S tau mice (human 0N4R tau) (Homo sapiens, UniProt P10636, P618S).
T2 construct: from tissue; host or cells: brain of transgenic P301S tau mice (C57Bl/6 background)
Nature of the test: In vitro fluorescence microscopy of binding to transgenic P301S tau mouse brain sections. As to the method: We then screened all of the compounds for their binding to tau inclusions in brain sections from transgenic P301S tau mice, which express the shortest isoform (0N4R) of human 4-repeat (4R) tau,[18] using their autofluorescence properties to rapidly analyze their binding.
Mice were perfused with PBS followed by 4% PFA. Following 24 h in 4% PFA, the brains were transferred to 20% sucrose prior to being embedded in OCT for cryo-sectioning. Sections (14 μm) were incubated with 50 μM LM229 or PBB3 for 1 h, washed in PBS + 0.1% Triton X-100, and cover-slipped with Vectashield mounting medium. Sections were imaged using a Leica DM6000 microscope. Mouse monoclonal AT8 (MN1020) or AT100 (MN1060) were from ThermoFisher and used at 1:1000. Anti-mouse secondary antibody was conjugated to AlexaFluor647.

Test [4] has as its target T3, heparin-induced synthetic recombinant tau fibrils (tau-441 human) (Homo sapiens, UniProt P10636).
T3 construct: purchased Eurogentec
Nature of the test: Fluorescence quenching assay of compound binding to heparin-induced synthetic recombinant tau fibrils. Particulars: read-out: Kd of compound binding to heparin-induced synthetic tau fibrils determined by fluorimetry. As to the method: All compounds were assessed for their ability to bind to synthetic recombinant tau fibrils using a fluorescence quenching assay[20] […] Binding affinities for some compounds (141, 164, 166, 169, 171, and 207) could not be assessed with this assay because of negligible changes in fluorescence intensity. […] This compound was then selected for further characterization and development.
All reagents and solvents were used as supplied or purified using standard procedures as necessary. Analytical separation was conducted on an Ultimate 3000 HPLC system (Thermo Scientific). [^11C]CO2 was produced via the ^14N(p,α) nuclear reaction using GE PETtrace cyclotron applying 16.5 MeV protons onto 0.5% oxygen in nitrogen gas. [^11C]Methyl iodide was synthesized on a GE Medical Systems MeI MicroLab. A F-4500 FL spectrophotometer (Chemical Engineering department, University of Cambridge) was used to do fluorescence scan of all of the compounds mixed with tau fibrils. Excitation wavelength was 365 nm, and emission was scanned from 400 to 600 nm. With parameters, setting excitation slit was 5.0 nm, emission slit was 20.0 nm, PMT voltage was 950 V, and response was 0.5 s.
Monomeric tau (tau-441 human) lyophilized powder was obtained from Eurogentec. Tau monomers (100 μM) were prepared in 20 mM BES buffer (pH 7.4 with 25 mM NaCl and 2 mM dithiothreitol and incubated at 56 °C for 10 min. After being cooled to room temperature in a water bath, heparin (25 μM) and a protease inhibitor mix were added and incubated at 37 °C for 10 days. […]
Binding affinity of all compounds with tau fibrils […]
All other compounds binding affinit ies towards tau fibrils
were then tested by fluorescent binding assay. […]

T2 sequence (P10636 1-383 isoform P10636-6 P243S): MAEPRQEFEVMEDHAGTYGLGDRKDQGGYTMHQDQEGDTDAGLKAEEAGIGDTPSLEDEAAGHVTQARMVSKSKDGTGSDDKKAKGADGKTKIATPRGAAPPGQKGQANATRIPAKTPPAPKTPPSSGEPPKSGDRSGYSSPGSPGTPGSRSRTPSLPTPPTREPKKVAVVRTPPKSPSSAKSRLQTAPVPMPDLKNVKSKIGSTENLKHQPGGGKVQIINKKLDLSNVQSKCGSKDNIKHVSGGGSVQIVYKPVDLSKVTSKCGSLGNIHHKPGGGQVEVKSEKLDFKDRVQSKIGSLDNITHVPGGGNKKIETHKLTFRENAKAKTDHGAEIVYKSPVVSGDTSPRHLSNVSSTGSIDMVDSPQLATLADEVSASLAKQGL
T3 sequence (P10636 1-441 isoform P10636-8): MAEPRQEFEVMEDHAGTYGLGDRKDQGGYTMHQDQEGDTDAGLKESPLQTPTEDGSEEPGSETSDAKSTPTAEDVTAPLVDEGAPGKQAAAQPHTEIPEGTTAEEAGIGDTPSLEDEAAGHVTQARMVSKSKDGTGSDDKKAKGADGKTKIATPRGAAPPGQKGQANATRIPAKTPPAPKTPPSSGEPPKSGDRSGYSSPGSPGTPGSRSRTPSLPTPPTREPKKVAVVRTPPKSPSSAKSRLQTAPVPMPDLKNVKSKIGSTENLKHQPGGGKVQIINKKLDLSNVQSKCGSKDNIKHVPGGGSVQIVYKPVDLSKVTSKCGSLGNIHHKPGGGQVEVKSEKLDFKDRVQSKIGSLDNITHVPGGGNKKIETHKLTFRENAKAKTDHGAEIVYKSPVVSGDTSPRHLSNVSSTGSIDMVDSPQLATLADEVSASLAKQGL
T1 sequence (P10636 151-360 isoform P10636-5): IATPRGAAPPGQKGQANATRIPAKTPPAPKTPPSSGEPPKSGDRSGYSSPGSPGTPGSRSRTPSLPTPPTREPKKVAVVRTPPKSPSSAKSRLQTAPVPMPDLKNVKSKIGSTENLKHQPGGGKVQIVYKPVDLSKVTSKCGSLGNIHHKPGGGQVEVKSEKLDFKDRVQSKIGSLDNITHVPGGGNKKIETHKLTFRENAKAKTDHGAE

As for `CNc1ccc(/C=C/C=C/c2nc3cc(F)c(O)cc3s2)cn1` [LM229], the “Preference between 3R and 4R tau inclusions in rat models” value in test [1] was “preferential binding toward the 3R tau inclusions”. Besides, in test [2], the “Binding to pathological aggregated tau in SHR24 rat brain sections” value is “bound with similar properties to pathological aggregated tau”. In test [3] (2 months old mice), the “Binding to P301S tau mouse brain sections, 2 months of age” value is listed as “Rare binding”. Further, the “Binding to P301S tau mouse brain sections, 6 months of age” value in test [3] (6 months old mice) is on record as “significant binding to large populations of neurons”. The “Binding to tau inclusions in P301S tau mouse brain sections” value in test [3] (autofluorescence, co-staining with AT8 and AT100) is recorded as “intense, specific binding”. The “Binding to WT mouse brain sections” value in test [3] (brainstem sections from WT animals) is on record as “No specific binding”. In addition, in test [4], the Kd was 3.6 nM.

The values above are taken from paper PMC8176454, “Synthesis and Assessment of Novel Probes for Imaging Tau Pathology in Transgenic Mouse and Rat Models” (ACS Chemical Neuroscience, 2021).
